From ChEMBL document CHEMBL1147543, “Styrylheterocycles as a novel class inhibitor of cyclooxygenase-2-mediated prostaglandin E(2) production” (Bioorg Med Chem Lett, 2004)

The compounds below were run on RAW264.7 (assay: Inhibitory effect on PGE-2 production in LPS-stimulated RAW264.7 cells). Conditions: Mus musculus.
Assay type: functional, cell-based

IC50	Structure (SMILES)
> 33.3 µM	COc1cc(/C=C/c2cc(OC)cc(OC)c2)cc(OC)c1
4 µM	Oc1ccc(/C=C/c2cc(O)cc(O)c2)cc1 [RESVERATROL]
7.4 µM	COc1cc(/C=C/c2cc(OC)c(OC)cc2OC)cc(OC)c1
